Paper PMC12508063, “Chloroindazole based estrogen receptor β ligands with favorable pharmacokinetics promote functional remyelination and visual recovery” (Scientific Reports, 2025)
Several values for one entry are separate records, joined by “and”; a condition that tells them apart may be missing. Equal entries are not always repeated.

Experiments:
[1] = target: T1, ERα (Homo sapiens, UniProt P03372); experiment: ER reporter gene assay in HEK 293 T cells (ER-luciferase reporter); type: cell-based; conditions: for Reporter gene assay raw data, ERa: 4 replicate columns
T1 construct: expressed in transfected cells; host or cells: HEK 293 T cells
T1 sequence (P03372 1-595): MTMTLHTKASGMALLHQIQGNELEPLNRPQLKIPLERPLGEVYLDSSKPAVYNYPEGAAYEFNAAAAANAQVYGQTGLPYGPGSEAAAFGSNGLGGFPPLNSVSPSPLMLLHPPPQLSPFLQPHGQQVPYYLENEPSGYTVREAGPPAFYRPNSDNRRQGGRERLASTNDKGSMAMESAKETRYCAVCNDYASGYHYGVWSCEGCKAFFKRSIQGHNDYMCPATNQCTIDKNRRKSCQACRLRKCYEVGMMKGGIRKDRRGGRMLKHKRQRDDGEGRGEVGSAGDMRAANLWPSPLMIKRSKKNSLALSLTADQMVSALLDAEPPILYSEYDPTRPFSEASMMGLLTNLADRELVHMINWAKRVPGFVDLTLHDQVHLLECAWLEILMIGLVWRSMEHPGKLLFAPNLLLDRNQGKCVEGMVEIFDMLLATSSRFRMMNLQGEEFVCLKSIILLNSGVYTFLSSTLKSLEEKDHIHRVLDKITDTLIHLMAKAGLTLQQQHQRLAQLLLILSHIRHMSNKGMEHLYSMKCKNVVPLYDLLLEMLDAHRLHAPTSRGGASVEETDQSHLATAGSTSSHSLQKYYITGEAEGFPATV

[2] = target: T2, ERβ (Homo sapiens, UniProt Q92731); experiment: as above; type: cell-based; conditions: for Reporter gene assay raw data, ERb: ERb data block (head r19), 4 replicate columns; for ERb reporter gene assay raw data (response): four replicate columns per compound
T2 construct: expressed in transfected cells; host or cells: HEK 293 T cells
T2 sequence (Q92731 whole entry, species assumed): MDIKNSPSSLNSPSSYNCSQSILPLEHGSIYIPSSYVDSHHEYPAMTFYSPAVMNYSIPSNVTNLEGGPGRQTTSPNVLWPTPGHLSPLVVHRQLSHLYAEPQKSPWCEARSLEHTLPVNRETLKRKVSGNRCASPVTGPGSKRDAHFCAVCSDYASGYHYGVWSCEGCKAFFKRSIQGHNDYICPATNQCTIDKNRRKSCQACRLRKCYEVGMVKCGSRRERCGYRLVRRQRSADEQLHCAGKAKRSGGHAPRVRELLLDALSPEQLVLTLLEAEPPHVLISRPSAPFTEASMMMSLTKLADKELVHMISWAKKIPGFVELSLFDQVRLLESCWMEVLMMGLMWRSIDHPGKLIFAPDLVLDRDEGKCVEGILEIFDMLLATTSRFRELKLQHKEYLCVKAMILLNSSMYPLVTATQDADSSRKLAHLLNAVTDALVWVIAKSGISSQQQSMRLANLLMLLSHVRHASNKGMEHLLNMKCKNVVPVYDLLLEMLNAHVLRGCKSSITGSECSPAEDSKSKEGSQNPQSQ

Oc1ccc(-n2nc3ccc(O)cc3c2Cl)cc1 [Compound K-101]
Reporter gene assay raw data, ERa ([1]; Log M -6, first ERa data block (head r2)): 104.545 and 98.5711 and 90.2001 and 86.8078
Reporter gene assay raw data, ERa ([1]; Log M -6, second ERa data block (head r34)): 95.025 and 94.1762 and 88.9253 and 94.8982
Reporter gene assay raw data, ERa ([1]; Log M -6.47756, first ERa data block (head r2)): 85.5888 and 84.856 and 83.9539 and 86.1821
Reporter gene assay raw data, ERa ([1]; Log M -6.47756, second ERa data block (head r34)): 88.8265 and 82.9979 and 83.8682 and 89.3798
Reporter gene assay raw data, ERa ([1]; Log M -6.95468, first ERa data block (head r2)): 74.2269 and 77.1348 and 79.6996 and 75.9439
Reporter gene assay raw data, ERa ([1]; Log M -6.95468, second ERa data block (head r34)): 78.2124 and 79.7922 and 76.8721 and 73.4179
Reporter gene assay raw data, ERa ([1]; Log M -7.4318, first ERa data block (head r2)): 58.4425 and 53.4049 and 54.6387 and 66.4913
Reporter gene assay raw data, ERa ([1]; Log M -7.4318, second ERa data block (head r34)): 66.1364 and 63.6537 and 63.2155 and 63.5605
Reporter gene assay raw data, ERa ([1]; Log M -7.91009, first ERa data block (head r2)): 54.5242 and 53.4131 and 49.5391 and 50.4679
Reporter gene assay raw data, ERa ([1]; Log M -7.91009, second ERa data block (head r34)): 55.1309 and 61.6988 and 46.1658 and 50.4053
Reporter gene assay raw data, ERa ([1]; Log M -8.3851, first ERa data block (head r2)): 36.2798 and 37.8765 and 41.0912 and 38.4728
Reporter gene assay raw data, ERa ([1]; Log M -8.3851, second ERa data block (head r34)): 40.2636 and 45.8507 and 39.6541 and 35.9505
Reporter gene assay raw data, ERa ([1]; Log M -8.86328, first ERa data block (head r2)): 20.0299 and 22.3737 and 21.1668 and 19.8353
Reporter gene assay raw data, ERa ([1]; Log M -8.86328, second ERa data block (head r34)): 25.3166 and 18.7166 and 21.7026 and 19.2485
Reporter gene assay raw data, ERa ([1]; Log M -9.34008, first ERa data block (head r2)): 7.216 and 7.17 and 5.351 and 7.624
Reporter gene assay raw data, ERa ([1]; Log M -9.34008, second ERa data block (head r34)): 6.164 and 5.9134 and 5.736 and 5.474
Reporter gene assay raw data, ERa ([1]; Log M -9.81816, first ERa data block (head r2)): 1.823 and 1.931 and 1.019 and 2.136
Reporter gene assay raw data, ERa ([1]; Log M -9.81816, second ERa data block (head r34)): 0.6247 and 1.953 and 0.3211 and 0.779
Reporter gene assay raw data, ERa ([1]; Log M -10.2941, first ERa data block (head r2)): 1.733 and 1.446 and -0.6404 and -0.6096
Reporter gene assay raw data, ERa ([1]; Log M -10.2941, second ERa data block (head r34)): -0.6765 and 0.406 and -1.087 and 0.2814
Reporter gene assay raw data, ERa ([1]; Log M -10.7721, first ERa data block (head r2)): -0.886 and -0.01848 and -1.926 and -0.988
Reporter gene assay raw data, ERa ([1]; Log M -10.7721, second ERa data block (head r34)): -1.593 and -1.3667 and -0.9474 and 0.114
Reporter gene assay raw data, ERa ([1]; Log M -11.248, first ERa data block (head r2)): -1.205 and 0.7176 and 0.3903 and 0.3615
Reporter gene assay raw data, ERa ([1]; Log M -11.248, second ERa data block (head r34)): -1.908 and -0.2669 and 0.1993 and -0.8382
ERa reporter gene assay raw data (response) ([1]; Log M -13, four replicate columns per compound): 0.8253 and -0.8253 and 1.478 and -1.478
Reporter gene assay raw data, ERb ([2]; Log M -6): 120.988 and 116.157 and 143.98 and 147.219
ERb reporter gene assay raw data (response) ([2]; Log M -6): 111.44 and 122.263 and 112.615 and 103.371
Reporter gene assay raw data, ERb ([2]; Log M -6.47756): 114.841 and 114.867 and 137.295 and 151.298
ERb reporter gene assay raw data (response) ([2]; Log M -6.47756): 99.9004 and 104.917 and 98.5023 and 107.756
Reporter gene assay raw data, ERb ([2]; Log M -6.95468): 124.443 and 116.848 and 139.382 and 142.558
ERb reporter gene assay raw data (response) ([2]; Log M -6.95468): 103.919 and 109.742 and 107.029 and 112.5
Reporter gene assay raw data, ERb ([2]; Log M -7.4318): 110.594 and 113.713 and 119.524 and 142.929
ERb reporter gene assay raw data (response) ([2]; Log M -7.4318): 106.837 and 108.962 and 105.441 and 101.954
Reporter gene assay raw data, ERb ([2]; Log M -7.91009): 112.17 and 111.487 and 138.169 and 129.452
ERb reporter gene assay raw data (response) ([2]; Log M -7.91009): 109.149 and 102.176 and 94.3567 and 106.552
Reporter gene assay raw data, ERb ([2]; Log M -8.3851): 117.284 and 114.634 and 116.673 and 134.281
ERb reporter gene assay raw data (response) ([2]; Log M -8.3851): 104.39 and 105.189 and 99.3517 and 108.832
Reporter gene assay raw data, ERb ([2]; Log M -8.86328): 116.233 and 118.325 and 116.611 and 129.233
ERb reporter gene assay raw data (response) ([2]; Log M -8.86328): 100.866 and 91.0385 and 99.5048 and 94.2764
Reporter gene assay raw data, ERb ([2]; Log M -9.34008): 83.1588 and 87.5707 and 97.8302 and 99.1529
ERb reporter gene assay raw data (response) ([2]; Log M -9.34008): 78.6235 and 76.3041 and 74.4798 and 84.9468
Reporter gene assay raw data, ERb ([2]; Log M -9.81816): 46.3463 and 45.2097 and 53.3712 and 57.2512
ERb reporter gene assay raw data (response) ([2]; Log M -9.81816): 51.4383 and 42.8216 and 46.1589 and 42.3832
Reporter gene assay raw data, ERb ([2]; Log M -10.2941): 13.5511 and 13.5131 and 21.4772 and 19.6971
ERb reporter gene assay raw data (response) ([2]; Log M -10.2941): 11.6805 and 12.8501 and 11.4455 and 13.5515
Reporter gene assay raw data, ERb ([2]; Log M -10.7721): 2.426 and 2.349 and 4.55 and 3.395
ERb reporter gene assay raw data (response) ([2]; Log M -10.7721): 3.239 and 2.8663 and 1.689 and 3.053
Reporter gene assay raw data, ERb ([2]; Log M -11.248): 1.344 and 1.212 and 1.016 and 0.8144
ERb reporter gene assay raw data (response) ([2]; Log M -11.248): 2.211 and 0.8495 and 0.02026 and 1.717
ERb reporter gene assay raw data (response) ([2]; Log M -13): 0.5566 and -0.5566 and 0.8119 and -0.8119
